Like-named read-outs stand apart in the source and are kept apart here.
Experiments:
[1] = system: BCG-induced c-Myc mRNA expression; type: cell-based, human; conditions: then BCG (M.O.I.=1) 3 hours, vs DMSO
c-Myc [2] = conditions: cited from earlier work
c-Myc [3] = assay: Induction of c-Myc expression by HIV-1 Tat in primary human blood macrophages (RT-PCR, Western blot); type: cell-based; conditions: Tat 2, 4 or 6 hours (mRNA); 20 or 100 ng/ml 24 hours (protein)
Protocol: Briefly, PBMac were treated with or without Tat ([…]) for indicated time points (2, 4 or 6 hours). Total RNA was extracted for analyzing c-Myc mRNA expression levels by quantitative RT-PCR. In addition, PBMac were treated with HIV-1 Tat (20 or 100 ng/ml) for 24 hours. Cellular proteins were extracted for Western blot analyses to determine protein levels of c-Myc and actin. The level of actin was measured as a control of the amount of proteins loaded.

[4] = molecular target: T1, c-Myc (endogenous protein of primary human blood macrophages) (human, UniProt P01106 16-454); assay: co-immunoprecipitation with anti-c-Myc antibody from PBMac lysates, Western blot
T1 construct: Endogenous c-Myc in lysates of primary human blood macrophages (PBMac), with or without BCG treatment; also called cytoplasmic c-Myc
Protocol: Total proteins (200 μg) were extracted from PBMac by IP buffer (10 mM Tris [pH7.4], 1 mM EDTA, 1 mM EGTA, 150 mM NaCl, 0.5% NP-40, 1% Triton X-100, inhibitor cocktails of proteases and phosphatases), and were incubated with 1μg primary antibodies against IκBα(Santa Cruz Biotechnology, USA) or c-Myc (Millipore, USA) for 2 hours at 4° C. and then with 20 μl Protein A/G agarose beads (Santa Cruz Biotechnology, USA) for 1 hour at 4° C. The immunoprecipitates were then washed 6 times with IP buffer. Cytoplasmic and nuclear proteins were extracted from PBMac as previously described (Cheung et al., 2005; Lee et al., 2005). Immunoprecipitated, cytoplasmic (50 μg) or nuclear proteins (10 μg) were analyzed by Western Blot as in our previous reports (Cheung et al., 2005; Lee et al., 2005).

[5] = 10 μM inhibitor 1 hour pretreatment

T1 sequence (P01106 16-454 limits assumed): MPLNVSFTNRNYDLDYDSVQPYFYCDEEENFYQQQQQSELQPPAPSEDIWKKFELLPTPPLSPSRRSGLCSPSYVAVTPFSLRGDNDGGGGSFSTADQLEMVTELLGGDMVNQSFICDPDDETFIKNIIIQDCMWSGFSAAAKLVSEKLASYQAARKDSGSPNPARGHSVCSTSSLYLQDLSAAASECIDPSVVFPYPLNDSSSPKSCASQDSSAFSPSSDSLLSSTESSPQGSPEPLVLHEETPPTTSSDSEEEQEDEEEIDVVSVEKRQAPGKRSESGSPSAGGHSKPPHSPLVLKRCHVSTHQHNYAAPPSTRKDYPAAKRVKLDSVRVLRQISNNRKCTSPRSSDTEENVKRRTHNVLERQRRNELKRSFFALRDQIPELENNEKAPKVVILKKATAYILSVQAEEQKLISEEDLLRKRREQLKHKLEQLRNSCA

In the case of `O=C1c2ccccc2-c2n[nH]c3cccc1c23` [SP600159], the “level of BCG-induced c-Myc mRNA expression” value (from here on “level”) [1, 5] is reported as “significantly reduced”.

In the case of `COc1cccc(-c2cc(=O)c3ccccc3o2)c1N` [PD98059], the “level” value [1, 5] is reported as “significantly reduced”.

In the case of `C[S+]([O-])c1ccc(-c2nc(-c3ccncc3)c(-c3ccc(F)cc3)[nH]2)cc1` (stereo not shown) [SB203580], the “level” value [1, 5] is reported as “did not affect”.

In the case of `C[n+]1ccc(-c2c3nc(c(-c4cc[n+](C)cc4)c4ccc([nH]4)c(-c4cc[n+](C)cc4)c4ccc([nH]4)c(-c4cc[n+](C)cc4)c4nc2C=C4)C=C3)cc1` [Cationic Porphyrin TMPyP4], the “expression and activity of c-Myc” value (c-Myc [2]) is listed as “inhibit both the expression and activity of c-Myc”.

For `O=C(/C=C/c1ccc(O)c(O)c1)OCCc1ccccc1` [CAPE], the “level” value ([1]; 15 μg/ml inhibitor 1 hour pretreatment) was “did not affect”.

B1: HIV-1 Tat: HIV-1 Tat protein used to treat primary human blood macrophages (protein, UniProt P04608 1-86, looked up)
Protein Tat: MEPVDPRLEPWKHPGSQPKTACTNCYCKKCCFHCQVCFITKALGISYGRKKRRQRRRAHQNSQTHQASLSKQPTSQPRGDPTGPKE
In the case of B1, the “c-Myc expression (mRNA and protein)” value (c-Myc [3]) is reported as “induces c-Myc expression”.

B2: ERK1 (member of ERK1/2, endogenous protein of primary human blood macrophages) (enzyme, UniProt P27361 2-379, looked up)
chain: AAAAAQGGGGGEPRRTEGVGPGVPGEVEMVKGQPFDVGPRYTQLQYIGEGAYGMVSSAYDHVRKTRVAIKKISPFEHQTYCQRTLREIQILLRFRHENVIGIRDILRASTLEAMRDVYIVQDLMETDLYKLLKSQQLSNDHICYFLYQILRGLKYIHSANVLHRDLKPSNLLINTTCDLKICDFGLARIADPEHDHTGFLTEYVATRWYRAPEIMLNSKGYTKSIDIWSVGCILAEMLSNRPIFPGKHYLDQLNHILGILGSPSQEDLNCIINMKARNYLQSLPSKTKVAWAKLFPKSDSKALDLLDRMLTFNPNKRITVEEALAHPYLEQYYDPTDEPVAEEPFTFAMELDDLPKERLKELIFQETARFQPGVLEAP
notes: It is split here into its two members
B2: no binding [4].
